Key:
[1] = target: T1, SHP1 (Homo sapiens, UniProt P29350); assay: PTPase assay, GST-fusion PTP domain of SHP1, DiFMUP substrate; assay type: biochemical
T1 construct: The GST fusion PTP domains of SHP1 and PTP1B were expressed and purified in a fashion similar to that of SHP2; GST; made in house
T1 sequence (P29350 244-515 limits assumed): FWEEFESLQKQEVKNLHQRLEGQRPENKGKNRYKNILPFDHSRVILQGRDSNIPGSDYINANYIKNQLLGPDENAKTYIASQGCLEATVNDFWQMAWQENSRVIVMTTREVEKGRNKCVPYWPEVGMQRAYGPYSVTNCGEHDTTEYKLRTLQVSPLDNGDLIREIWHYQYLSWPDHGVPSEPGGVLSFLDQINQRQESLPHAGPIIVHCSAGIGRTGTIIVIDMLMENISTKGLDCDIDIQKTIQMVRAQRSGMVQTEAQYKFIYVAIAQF
Protocol: After completion of synthesis, both CNBCA and CNBBA were purified on silica gel, and purity was determined by HPLC. The purified compounds were then tested for their effect on the SHP2 enzyme activity and on the activity of the selected control PTPs (SHP1 and PTP1B) by the phosphotyrosyl phosphatase (PTPase) assay as described previously.[30],[31] First, the GST fusion of the PTP domains of SHP2, SHP1, and PTP1B were produced and purified as reported by us previously.[32] The reactions were performed in a buffer containing 10 mM Tris-HCl (pH 7.2), 100 mM NaCl, 1 mM EDTA, 1 mM dithiothreitol (DTT), and 0.01% Tween-20. […] The complete mixture was incubated at 37 °C for 20 min, and fluorescence intensity was measured by the Synergy 4 plate reader at the excitation and emission wavelengths of 360 and 460 nm, respectively. The half inhibitory concentration (IC50) value of each compound was calculated and plotted using Graphpad Prism software. […]
We used the PTPase assay described previously[30],[31] to evaluate the effect of the newly synthesized compounds on the enzymatic activity of SHP2, SHP1, and PTP1B. […] The mixtures were incubated at 37 °C for 20 min and transferred to 96 well plates, and the fluorescence intensity was measured by a Synergy 4 plate reader at the excitation and emission wavelengths of 360 and 460 nm, respectively. […]

[2] = target: T2, PTP1B (Homo sapiens, UniProt P18031); assay: Cellular thermal shift assay (CETSA), nontarget PTP1B immunoblot; assay type: binding; details: 100 μM CNBCA, cell lysate
T2 construct: compared it with the nontarget PTP1B protein; endogenous in cells
T2 sequence (P18031 1-435): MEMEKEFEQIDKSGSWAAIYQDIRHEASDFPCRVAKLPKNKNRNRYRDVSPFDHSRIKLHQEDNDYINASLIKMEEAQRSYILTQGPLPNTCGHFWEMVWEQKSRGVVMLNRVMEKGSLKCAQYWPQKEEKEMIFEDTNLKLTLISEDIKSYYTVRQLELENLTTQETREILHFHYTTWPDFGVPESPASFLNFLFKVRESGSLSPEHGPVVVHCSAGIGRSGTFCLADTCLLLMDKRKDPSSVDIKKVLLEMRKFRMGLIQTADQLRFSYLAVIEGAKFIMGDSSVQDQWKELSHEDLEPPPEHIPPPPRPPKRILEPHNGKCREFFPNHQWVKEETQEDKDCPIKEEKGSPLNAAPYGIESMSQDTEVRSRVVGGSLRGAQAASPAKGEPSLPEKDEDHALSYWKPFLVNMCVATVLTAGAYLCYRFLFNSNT
Description: First, we used the cellular thermal shift assay (CETSA) to show whether CNBCA binds to endogenous full-length SHP2 under cellular contexts. The CETSA assay is based on the principle that specific inhibitors bind to a target protein and confer relative stability from heat-induced denaturation and precipitation when compared to a nontarget protein present in the same milieu.[34] Accordingly, we performed CETSA to test the effect of CNBCA on the SHP2 protein stability and compared it with the nontarget PTP1B protein as described in the materials and methods.
After heat treatment, supernatants were analyzed by immunoblotting (IB) for SHP2 and the nontarget phosphatase PTP1B. […] To provide semiquantitative data, band densities of both SHP2 and PTP1B were measured and presented as bar graph. […] On the other hand, the nontarget protein PTP1B was reduced to approximately 50% at 49 °C, to 25% at 55 °C, and to less than 10% at 58 °C (Figure 3B and D).
For the CETSA study, total protein extracts (TPE) prepared from two breast cancer cells, the triple-negative MDA-MB468 and the HER2-positive JIMT-1 cells, were used. Briefly, TPE from the two cell lines were cleared by centrifugation, mixed with CNBCA at 100 μM concentration (the maximum amount used in the IC50 studies), and incubated for 10 min at room temperature to allow binding. The mixture was then divided into 100 μL aliquots, treated with heat for 10 min at different temperatures, ranging from 37 to 64 °C that differ by 3 °C intervals, cooled on ice for 10 min, centrifuged at 20,000g for 20 min to remove precipitated proteins, and the supernatants analyzed by immunoblotting (IB) for SHP2 and the nontarget PTP, PTP1B. Aliquots that were mixed with CNBCA, but not treated with heat were used as positive controls for comparison.

IC50 ([1]; PTP domain, 1 nM enzyme, 35 μM DiFMUP): 34.6 µM | selectivity ratio SHP1 versus SHP2 ([1]; SHP2 IC50 as reference): 39.77 fold | PTP1B remaining in solution (band density) ([2]; heat 49 °C 10 min): approximately 50% | PTP1B remaining in solution (band density) ([2]; heat 55 °C 10 min): 25% | PTP1B remaining in solution (band density) ([2]; heat 58 °C 10 min): less than 10%
SMILES: CCCCCCCCCOc1ccc(-c2ccc(C(=O)O)cc2)cc1CCCC(=O)O [CNBCA, 3′-(3-carboxypropyl)-4′-(nonyloxy)-[1,1′-biphenyl]-4-carboxylic acid]

— publication PMC10591299, “Targeting SHP2 with an Active Site Inhibitor Blocks Signaling and Breast Cancer Cell Phenotypes” (ACS Bio & Med Chem Au, 2023)
